Measured values: patent US5354749A, “Sulfonylbenzyl-substituted benzo- and pyridopyridones” (Bayer Aktiengesellschaft, priority 1992, dated 1994)

Columns and labels:
[1] = tested on: angiotensin II-induced contraction of the isolated rabbit aorta; test: Inhibition of angiotensin II-induced contraction (vasoconstriction) on isolated aortic rings from rabbits in vitro; conditions: at 3rd = submaximum agonist concentration
Method: Rabbits of both sexes are stunned by a blow to the neck and exsanguinated, or optionally anaesthetised with Nembutal (about 60-80 mg/kg i.v.) and sacrificed by opening the thorax. The thoracic aorta is removed, freed from adhering connective tissue and divided into ring segments 1.5 mm wide, and these are introduced individually, under an initial load of about 3.5 g, into 10 ml organ baths with carbogen-gassed Krebs-Henseleit nutrient solution thermostatically controlled at 37° C. and having the following composition: 119 mmol/l of NaCl; 2.5 mmol/l of CaCl2 ×2 H2 O; 1.2 mmol/l of KH2 PO4; 10 mmol/l of glucose; 4.8 mmol/l of KCl; 1.4 mmol/l of MgSO4 ×7 H2 O and 25 mmol/l of NaHCO3.
The contractions are recorded isometrically by Statham UC2 cells via a bridge amplifier (from Mulheim or DSM Aalen) and digitised and evaluated by means of an A/D converter (System 570, Keithley Munich). The agonist dose/effect curves (DEC) are plotted hourly. For each DEC, 3 or 4 individual concentrations are applied to the baths at intervals of 4 minutes. At the end of the DEC and the subsequent wash-out cycles (16 times for in each case about 5 seconds/minute with the abovementioned nutrient solution), a 28-minute rest or incubation phase follows, within which the contractions as a rule reach the starting value again. […]

Angiotensin II receptor = target: T1, Angiotensin II receptor (Bos taurus, UniProt P25104); test: Angiotensin II receptor binding on membrane fractions of the adrenal cortex (3H-angiotensin II); conditions: bovine adrenal cortex membranes; 3H-angiotensin II 3-5 nM; 60 minutes, room temperature
T1 construct: carried out on partially purified membrane fractions of bovine AC with radioactive angiotensin II; from tissue; host or cells: bovine adrenal cortex, partially purified membrane fractions
T1 sequence (P25104 1-359): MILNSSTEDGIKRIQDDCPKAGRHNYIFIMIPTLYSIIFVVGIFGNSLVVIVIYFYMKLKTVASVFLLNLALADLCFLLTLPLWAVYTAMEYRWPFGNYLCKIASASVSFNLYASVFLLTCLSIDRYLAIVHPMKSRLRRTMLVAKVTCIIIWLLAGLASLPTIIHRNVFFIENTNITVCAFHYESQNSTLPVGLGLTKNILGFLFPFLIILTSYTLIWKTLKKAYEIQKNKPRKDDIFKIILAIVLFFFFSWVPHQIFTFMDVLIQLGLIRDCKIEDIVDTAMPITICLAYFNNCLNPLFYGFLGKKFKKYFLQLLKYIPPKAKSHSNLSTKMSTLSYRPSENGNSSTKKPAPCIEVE
Method: Bovine adrenal cortices (AC) which are freshly removed and thoroughly freed from medulla of the capsule are comminuted in sucrose solution (0.32 M) with the aid of an Ultra-Turrax (Janke & Kunkel, Staufen i.B.) to give a coarse membrane homogenate, which is partially purified in two centrifugation steps to give membrane fractions. The investigations in receptor binding are carried out on partially purified membrane fractions of bovine AC with radioactive angiotensin II in an assay volume of 0.25 ml which contains, specifically, the partially purified membranes (50-80 μg), ^3 H-angiotensin II (3-5 nM), test buffer solution (50 mM Tris, pH 7.2) 5 mM MgCl2 and the substances to be investigated. After an incubation time of 60 minutes at room temperature, the non-bound radioactivity of the samples is separated off by means of moistened glass fibre filters (Whatman GF/C) and the bound radioactivity is measured […] in a scintillation cocktail, after the protein has been washed with ice-cold buffer solution (50 mM Tris/HCl, pH 7.4, 5% PEG 6000). The raw data were analysed with computer programs to give Ki and IC50 values (Ki : IC50 values corrected for the radioactivity used; IC50 values: concentration at which the substance to be investigated causes 50% inhibition of the specific binding of the radioligand).

IC50 [1]: 660 nM
Ki (Angiotensin II receptor): 1700 nM
Structure (SMILES): CCCCc1cc2ccccc2c(=O)n1Cc1ccc(S(=O)(=O)N2CCCC2C(=O)O)cc1Cl (centres unmarked) [Example 2, N-4-[3-Butyl-1,2-dihydro-1-oxo-isoquinolin-2-yl-methyl]3-chlorophenylsulphonylproline]
